Each structure is given as a SMILES string.

By logP is commonly meant a log measure of how a compound divides between an organic and an aqueous phase.

The compound `N#Cc1cc(I)c(O)c([N+](=O)[O-])c1` had a logP of 2.7. Turning to `COc1ccccc1[N+](=O)[O-]`, the log partition coefficient (logP) is 2. `CNC(=O)Oc1c(I)cc(C#N)cc1I` displayed a logP of 3.3. The value for `O=[N+]([O-])c1ccc(Cl)c(O)c1` was 2.4; that for `CC(=O)Oc1c(I)cc(C#N)cc1I` was 3.8. Regarding `Fc1c(F)c(F)c(C(F)(F)F)c(F)c1F`, the log partition coefficient (logP) worked out at 3.

As for `N#Cc1cc(I)cc(I)c1O`, the lipophilicity (logP) is 4.1. The value for `CC(C)C(=O)Oc1c(I)cc(C#N)cc1I` was 4.6; that for `CCCCCCCC(=O)Oc1c(I)cc(C#N)cc1I` was 6.8; that for `N#Cc1cc(I)c(O)c(I)c1` was 3.8. With `NC(=S)c1cc(I)c(O)c(I)c1`, the logP stood at 3.2. Compound `Cc1cc(I)c(O)c(I)c1` displayed a logP of 4.2. With `CS(=O)(=O)c1c(F)c(F)c(F)c(F)c1F` the figure was 1.2; with `COc1c(I)cc(C#N)cc1[N+](=O)[O-]`, 2.9. Consider `COc1c(I)cc(C#N)cc1I`, for which the logP came to 4.1.

`CSc1ccc(O)cc1C` had a logP of 2.3.

`Cc1cc(O)ccc1Cl` yielded a logP of 3.1. Consider `Fc1c(F)c(F)c(S)c(F)c1F`, for which the logP was determined as 2. On to `O=C(O)c1cc(Cl)ccc1O`, for which the logP is 2.9. The compound `O=C(O)c1cc(I)c(O)c(I)c1` had a logP of 3.7. With `CSc1c(C)cc(O)cc1C` the figure was 2.8; with `COC(=O)c1cc(I)c(O)c(I)c1`, 3.9; with `CCCCN(CCCC)SN(C)C(=O)Oc1cccc2c1OC(C)(C)C2`, 5.

(Values after the SangsterLogP compilation.)
